Measured values as given in US9221808B2, “Pyridylthiazole-based ureas as inhibitors of Rho associated protein kinase (ROCK) and methods of use” (H. Lee Moffitt Cancer Center and Research Institute, Inc., priority 2010, dated 2015).
Several values for one entry are separate records, joined by “and”; a condition that tells them apart may be missing. Equal entries are not always repeated. Structures can show the parent of a compound that is named as a salt. Where two headings read alike, the source gives them in different places.

What was measured:
ROCK1 = ROCK1 (Homo sapiens (Human), UniProt Q13464); experiment: FRET-based Z'-Lyte kinase assay, ROCK1; format: biochemical; conditions: for IC50: read-out: IC50 ± SD (μM) ROCK1; for inhibition at 50 µM: read-out: ROCK1 % inhibition @ 50 μM;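 for all read-outs here: kinase phosphorylates a coumarin/fluorescein-labelled FRET peptide, then a protease cleaves unphosphorylated peptide, progress read as donor to acceptor emission ratio after 400 nm excitation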
Excerpt: (§1) A) In the primary reaction, the Rho kinases phosphorylates a single serine or threonine residue in a synthetic FRET-peptide. This FRET-peptide is doubly labeled with a fluorophore at each end—coumarin (the FRET donor) on one end and fluorescein (the FRET acceptor) on the other—and also contains a single phosphorylation site which either overlaps with or lies adjacent to the proteolytic site. B) In the secondary reaction, a site-specific protease recognizes and cleaves the non-phosphorylated FRET-peptide. Cleavage disrupts FRET between the donor and acceptor fluorophores on the FRET-peptide, whereas uncleaved, phosphorylated FRET-peptides maintain FRET. Kinases phosphorylated FRET-peptides cannot be cleaved by the protease. […] Cleavage disrupts FRET and causes a decrease in the fluorescein fluorescence signal and a strong increase in the coumarin fluorescence signal. Therefore the extension of the phosphprylation can be measured by FRET-signal remaining the protease reaction. The assay uses a ratiometric method, which calculates the ratio of donor emission to acceptor emission (the emission ratio) after excitation of the donor fluorophore at 400 nm, to quantitate reaction progress.
(§2) All compounds were systematically screened against ROCK1 and ROCK2.

ROCK2 = ROCK2 (Homo sapiens (Human), UniProt O75116); experiment: FRET-based Z'-Lyte kinase assay, ROCK2; format: biochemical; conditions: read-out: IC50 ± SD (μM) ROCK2;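 note: kinase phosphorylates a coumarin/fluorescein FRET peptide, then a protease cleaves unphosphorylated peptide, read as donor/acceptor emission ratio after 400 nm excitation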
Chain of ROCK2 (O75116 whole entry, species assumed): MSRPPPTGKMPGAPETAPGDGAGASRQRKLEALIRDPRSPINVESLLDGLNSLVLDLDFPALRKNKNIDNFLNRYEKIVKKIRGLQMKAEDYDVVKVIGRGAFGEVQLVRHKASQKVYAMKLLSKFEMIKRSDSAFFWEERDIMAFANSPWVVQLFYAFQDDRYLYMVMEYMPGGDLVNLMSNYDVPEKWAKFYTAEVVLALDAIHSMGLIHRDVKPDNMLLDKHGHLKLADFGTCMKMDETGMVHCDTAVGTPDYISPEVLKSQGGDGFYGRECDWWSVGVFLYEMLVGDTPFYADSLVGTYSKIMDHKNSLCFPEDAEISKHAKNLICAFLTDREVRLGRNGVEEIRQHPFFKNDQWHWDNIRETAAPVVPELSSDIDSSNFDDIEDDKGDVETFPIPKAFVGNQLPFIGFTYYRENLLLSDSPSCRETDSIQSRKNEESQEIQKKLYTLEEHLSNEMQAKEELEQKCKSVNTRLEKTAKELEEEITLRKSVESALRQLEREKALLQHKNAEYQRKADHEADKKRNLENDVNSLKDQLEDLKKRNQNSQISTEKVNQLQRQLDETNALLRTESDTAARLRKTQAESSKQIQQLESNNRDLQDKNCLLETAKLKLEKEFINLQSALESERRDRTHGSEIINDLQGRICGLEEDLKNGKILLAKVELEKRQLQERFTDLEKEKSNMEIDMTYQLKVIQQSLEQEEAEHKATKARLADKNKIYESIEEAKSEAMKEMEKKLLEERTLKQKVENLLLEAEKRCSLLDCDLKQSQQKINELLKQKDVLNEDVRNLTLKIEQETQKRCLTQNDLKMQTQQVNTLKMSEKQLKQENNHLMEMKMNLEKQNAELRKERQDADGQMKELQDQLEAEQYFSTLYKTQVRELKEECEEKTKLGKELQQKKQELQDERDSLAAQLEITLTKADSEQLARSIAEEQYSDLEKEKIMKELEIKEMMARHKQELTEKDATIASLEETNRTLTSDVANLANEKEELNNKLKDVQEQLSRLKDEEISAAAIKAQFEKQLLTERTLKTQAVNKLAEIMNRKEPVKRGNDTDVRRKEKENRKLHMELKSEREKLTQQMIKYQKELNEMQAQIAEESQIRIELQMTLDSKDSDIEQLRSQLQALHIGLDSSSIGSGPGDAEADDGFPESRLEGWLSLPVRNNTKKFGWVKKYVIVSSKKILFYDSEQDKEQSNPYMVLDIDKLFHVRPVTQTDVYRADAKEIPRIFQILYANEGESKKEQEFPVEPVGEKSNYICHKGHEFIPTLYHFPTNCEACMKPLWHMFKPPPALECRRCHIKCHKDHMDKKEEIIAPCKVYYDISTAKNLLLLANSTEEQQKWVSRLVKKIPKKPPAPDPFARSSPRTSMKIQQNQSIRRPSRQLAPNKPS
Excerpt: as §1, §2

Chain of ROCK1 (Q13464 whole entry, species assumed): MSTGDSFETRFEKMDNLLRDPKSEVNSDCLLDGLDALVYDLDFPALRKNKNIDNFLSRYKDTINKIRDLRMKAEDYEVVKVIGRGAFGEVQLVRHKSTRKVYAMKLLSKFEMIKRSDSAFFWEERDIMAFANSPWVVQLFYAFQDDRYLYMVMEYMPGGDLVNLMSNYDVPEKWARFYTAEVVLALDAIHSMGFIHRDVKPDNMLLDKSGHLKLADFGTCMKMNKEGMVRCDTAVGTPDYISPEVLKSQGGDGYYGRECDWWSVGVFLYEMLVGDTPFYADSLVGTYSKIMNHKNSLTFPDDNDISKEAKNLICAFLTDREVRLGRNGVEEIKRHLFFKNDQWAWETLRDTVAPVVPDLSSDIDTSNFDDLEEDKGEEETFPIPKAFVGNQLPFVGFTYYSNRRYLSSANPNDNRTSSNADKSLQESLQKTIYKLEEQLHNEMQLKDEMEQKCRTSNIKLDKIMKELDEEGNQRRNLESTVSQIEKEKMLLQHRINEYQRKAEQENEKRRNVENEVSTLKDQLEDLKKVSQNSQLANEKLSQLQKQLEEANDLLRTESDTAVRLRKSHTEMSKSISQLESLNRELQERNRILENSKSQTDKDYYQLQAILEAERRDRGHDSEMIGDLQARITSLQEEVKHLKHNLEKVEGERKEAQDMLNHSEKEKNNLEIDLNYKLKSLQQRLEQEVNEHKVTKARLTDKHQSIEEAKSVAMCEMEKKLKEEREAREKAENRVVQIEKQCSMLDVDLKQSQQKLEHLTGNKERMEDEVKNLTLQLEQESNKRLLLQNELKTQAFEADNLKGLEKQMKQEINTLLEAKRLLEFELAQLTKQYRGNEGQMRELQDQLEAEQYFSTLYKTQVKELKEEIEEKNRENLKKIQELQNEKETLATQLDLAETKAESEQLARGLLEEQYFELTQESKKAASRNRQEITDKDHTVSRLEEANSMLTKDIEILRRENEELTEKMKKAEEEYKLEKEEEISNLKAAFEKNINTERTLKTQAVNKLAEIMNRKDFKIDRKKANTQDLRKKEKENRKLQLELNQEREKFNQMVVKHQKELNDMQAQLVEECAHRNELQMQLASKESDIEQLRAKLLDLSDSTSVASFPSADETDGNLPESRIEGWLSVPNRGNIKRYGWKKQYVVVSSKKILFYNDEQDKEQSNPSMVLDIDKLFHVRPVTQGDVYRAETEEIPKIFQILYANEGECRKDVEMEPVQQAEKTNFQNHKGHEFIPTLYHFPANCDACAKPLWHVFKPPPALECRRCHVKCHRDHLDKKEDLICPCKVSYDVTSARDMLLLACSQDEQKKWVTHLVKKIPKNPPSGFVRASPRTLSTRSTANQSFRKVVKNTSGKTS

Row | Compound | IC50 (ROCK1) | IC50 (ROCK2) | inhibition at 50 µM (ROCK1; 50 μM compound) [%] | other results
1 | O=C(NCc1ccc(Cl)cc1)Nc1nc(-c2ccncc2)cs1 [Compound 1ab, 1-(4-Chlorobenzyl)-3-(4-(pyridin-4-yl)thiazol-2-yl)urea] | 2.39 ± 0.53 µM | 1.1 ± 0.16 µM | – | –
2 | O=C(NCc1ccccc1F)Nc1nc(-c2ccncc2)cs1 [Compound 1ac, 1-(2-Fluorobenzyl)-3-(4-(pyridin-4-yl)thiazol-2-yl)urea] | 0.4 ± 0.03 µM | 0.12 ± 0.01 µM | – | –
3 | COc1ccccc1CNC(=O)Nc1nc(-c2ccncc2)cs1 [Compound 1ad, 1-(2-Methoxybenzyl)-3-(4-(pyridin-4-yl)thiazol-2-yl)urea] | 1.4 ± 0.11 µM | 0.47 ± 0.03 µM | – | –
4 | O=C(NCc1ccccc1Cl)Nc1nc(-c2ccncc2)cs1 [Compound 1ae, 1-(2-Chlorobenzyl)-3-(4-(pyridin-4-yl)thiazol-2-yl)urea] | 0.34 ± 0.02 µM | 0.11 ± 0.01 µM | – | –
5 | COc1cccc(CNC(=O)Nc2nc(-c3ccncc3)cs2)c1 [Compound 1af, 1-(3-Methoxybenzyl)-3-(4-(pyridin-4-yl)thiazol-2-yl)urea] | 0.06 µM and 0.027 µM | 0.01 µM and 0.011 µM | – | –
6 | COc1cccc(CNC(=O)Nc2nc(-c3ccncc3)cs2)c1 [Compound 1af-HCl, 1-(3-methoxybenzyl)-3-(4-(pyridin-4-yl)thiazol-2-yl)urea hydrochloride] | – | – | – | IC50 (ROCK1; hydrochloride): 0.023 ± 0.01 µM; IC50 (ROCK2; hydrochloride): 0.014 ± 0.01 µM
7 | COc1cccc(CNC(=O)Nc2nc(-c3ccncc3)cs2)c1 [Compound 1af-Mes, 1-(3-methoxybenzyl)-3-(4-(pyridin-4-yl)thiazol-2-yl)urea methanesulfonate] | – | – | – | IC50 (ROCK1; methanesulfonate): 0.03 ± 0.01 µM; IC50 (ROCK2; methanesulfonate): 0.01 µM
8 | C[C@@H](NC(=O)Nc1nc(-c2ccncc2)cs1)c1ccccc1 [Compound 1ah, (R)-1-(1-Phenylethyl)-3-(4-(pyridin-4-yl)thiazol-2-yl)urea] | 0.043 µM and 0.019 µM | 0.012 ± 0.004 µM | – | fold more potent than parent compound 1aa (ROCK1; comparator 1aa): 7 fold; fold more potent/active than its enantiomer (ROCK1; comparator: enantiomer (1ai for 1ah, 1bf for 1be)): 215 fold
9 | O=C(NCc1cccc(F)c1)Nc1nc(-c2ccncc2)cs1 [Compound 1aj, 1-(3-Fluorobenzyl)-3-(4-(pyridin-4-yl)thiazol-2-yl)urea] | 0.14 µM and 0.1 µM | 0.06 µM and 0.05 µM | – | –
10 | O=C(NCc1ccc(F)cc1)Nc1nc(-c2ccncc2)cs1 [Compound 1ak, 1-(4-Fluorobenzyl)-3-(4-(pyridin-4-yl)thiazol-2-yl)urea] | 0.57 ± 0.05 µM | 0.19 µM | – | –
11 | COc1ccc(CNC(=O)Nc2nc(-c3ccncc3)cs2)cc1.Cl [Compound 1am-HCl, 1-(4-methoxybenzyl)-3-(4-(pyridin-4-yl)thiazol-2-yl)urea hydrochloride] | – | – | – | ROCK1 % inhibition @ 50 μM (ROCK1; 50 μM compound): ROCK1 % inhibition @ 50 μM: 15.26 ± 0.91
12 | COc1ccc(CNC(=O)Nc2nc(-c3ccncc3)cs2)cc1 [Compound 1am-Mes, 1-(4-methoxybenzyl)-3-(4-(pyridin-4-yl)thiazol-2-yl)urea methanesulfonate] | 36.2 ± 10 µM | 7.42 ± 2.29 µM | – | –
13 | O=C(NCc1cccc(Cl)c1)Nc1nc(-c2ccncc2)cs1 [Compound 1an, 1-(3-Chlorobenzyl)-3-(4-(pyridin-4-yl)thiazol-2-yl)urea] | 0.1 µM and 0.14 µM | 0.06 ± 0.01 µM | – | –
14 | O=C(NCc1ccccn1)Nc1nc(-c2ccncc2)cs1 [Compound 1ap, 1-(Pyridin-2-ylmethyl)-3-(4-(pyridin-4-yl)thiazol-2-yl)urea] | 1.82 ± 0.18 µM | 1.44 ± 0.22 µM | – | –
15 | O=C(NCc1ccncc1)Nc1nc(-c2ccncc2)cs1 [Compound 1aq, 1-(4-(Pyridin-4-yl)thiazol-2-yl)-3-(pyridin-4-ylmethyl)urea] | 2.07 ± 0.29 µM | 1.47 ± 0.13 µM | – | –
16 | CN(Cc1ccccc1)C(=O)Nc1nc(-c2ccncc2)cs1 [Compound 1au, 1-Benzyl-1-methyl-3-(4-(pyridin-4-yl)thiazol-2-yl)urea] | 0.11 ± 0.003 µM | 0.07 ± 0.015 µM | – | –
17 | O=C(NCc1cccc2ccccc12)Nc1nc(-c2ccncc2)cs1 [Compound 1av, 1-(Naphthalen-1-ylmethyl)-3-(4-(pyridin-4-yl)thiazol-2-yl)urea] | 1.1 ± 0.202 µM | 0.58 ± 0.218 µM | – | –
18 | O=C(NCCc1ccccc1)Nc1nc(-c2ccncc2)cs1 [Compound 1aw, 1-Phenethyl-3-(4-(pyridin-4-yl)thiazol-2-yl)urea] | 0.48 ± 0.037 µM | 0.38 ± 0.107 µM | – | fold decrease in ROCK1 activity/potency compared to parent compound 1aa (ROCK1; comparator 1aa): 3 fold
19 | O=C(NCc1ccc([N+](=O)[O-])cc1)Nc1nc(-c2ccncc2)cs1 [Compound 1az, 1-(4-Nitrobenzyl)-3-(4-(pyridin-4-yl)thiazol-2-yl)urea] | – | – | 34.5 | –
20 | O=C(NCc1cccc(O)c1)Nc1nc(-c2ccncc2)cs1 [Compound 1bo-HCl, 1-(3-hydroxybenzyl)-3-(4-(pyridin-4-yl)thiazol-2-yl)urea] | 0.009 µM | – | – | –
21 | O=C(NCc1cccc(OC(F)(F)F)c1)Nc1nc(-c2ccncc2)cs1 [Compound 1br, 1-(4-(Pyridin-4-yl)thiazol-2-yl)-3-(3-(trifluoromethoxy)benzyl)urea] | – | – | 7.48 | –
22 | COc1ccc([C@H](C)NC(=O)Nc2nc(-c3ccncc3)cs2)cc1 [Compound 1by, (S)-1-(1-(4-methoxyphenyl)ethyl)-3-(4-(pyridin-4-yl)thiazol-2-yl)urea] | – | – | 1.09 | –
23 | O=C(NCc1cc(Cl)cc(Cl)c1)Nc1nc(-c2ccncc2)cs1 [Compound 1cg, 1-(3,5-dichlorobenzyl)-3-(4-(pyridin-4-yl)thiazol-2-yl)urea] | – | – | -6.26 | –
24 | O=C(Nc1nc(-c2ccncc2)cs1)NC1Cc2ccccc2C1 [Compound 1cr, 1-(2,3-Dihydro-1H-inden-2-yl)-3-(4-(pyridin-4-yl)thiazol-2-yl)urea] | – | – | 40.9 | –
25 | O=C(Nc1ccccc1)Nc1nc(-c2ccncc2)cs1 [Compound 6a, 1-Phenyl-3-(4-(pyridin-4-yl)thiazol-2-yl)urea] | – | – | 10.4 | –
26 | O=C(Nc1ccc(F)cc1)Nc1nc(-c2ccncc2)cs1 [Compound 6c, 1-(4-Fluorophenyl)-3-(4-(pyridin-4-yl)thiazol-2-yl)urea] | – | – | 8.06 | –
27 | O=C(Nc1nc(-c2ccncc2)cs1)Nc1ccccc1F [Compound 6d, 1-(2-Fluorophenyl)-3-(4-(pyridin-4-yl)thiazol-2-yl)urea] | – | – | 13.3 | –
28 | O=C(NC(=O)c1ccccc1)Nc1nc(-c2ccncc2)cs1 [Compound 8, N-(4-(Pyridin-4-yl)thiazol-2-ylcarbamoyl)benzamide] | – | – | 16.3 | –
29 | O=C(Nc1nc(-c2ccncc2)cs1)N1CCN(c2ccncn2)CC1 [Compound 12d, N-(4-(Pyridin-4-yl)thiazol-2-yl)-4-(pyrimidin-4-yl)piperazine-1-carboxamide] | – | – | 41.4 | –
30 | O=C(Nc1nc(-c2ccncc2)cs1)N1CCN(c2cccnc2)CC1 [Compound 12e, 4-(Pyridin-3-yl)-N-(4-(pyridin-4-yl)thiazol-2-yl)piperazine-1-carboxamide] | – | – | 14 | –

Second part, led by results:

Row | IC50 (ROCK1) | IC50 (ROCK2) | inhibition at 50 µM (ROCK1; 50 μM compound) [%] | Compound | other results
31 | 0.15 µM and 0.17 µM | 0.09 µM and 0.05 µM | – | O=C(NCc1ccccc1)Nc1nc(-c2ccncc2)cs1 [Compound 1aa, 1-Benzyl-3-(4-(pyridin-4-yl)thiazol-2-yl)urea] | –
32 | 1.88 ± 0.17 µM | 0.4 ± 0.07 µM | – | O=C(NCc1ccc(Cl)cc1Cl)Nc1nc(-c2ccncc2)cs1 [Compound 1ag, 1-(2,4-Dichlorobenzyl)-3-(4-(pyridin-4-yl)thiazol-2-yl)urea] | –
33 | 3.56 µM and 3.29 µM | 1.6 µM and 1.9 µM | – | C[C@H](NC(=O)Nc1nc(-c2ccncc2)cs1)c1ccccc1 [Compound 1ai, (S)-1-(1-Phenylethyl)-3-(4-(pyridin-4-yl)thiazol-2-yl)urea] | –
34 | 1.17 ± 0.15 µM | 0.38 ± 0.03 µM | – | O=C(NCc1ccco1)Nc1nc(-c2ccncc2)cs1 [Compound 1ak1, 1-(Furan-2-ylmethyl)-3-(4-(pyridin-4-yl)thiazol-2-yl)urea] | –
35 | 0.06 ± 0.04 µM | 0.002 ± 0.0015 µM | – | COc1cccc(CNC(=O)N(C)c2nc(-c3ccncc3)cs2)c1 [Compound 1al, 3-(3-Methoxybenzyl)-1-methyl-1-(4-(pyridin-4-yl)thiazol-2-yl)urea] | –
36 | 0.91 ± 0.15 µM | 0.49 ± 0.07 µM | – | O=C(NCc1cccnc1)Nc1nc(-c2ccncc2)cs1 [Compound 1ao, 1-(Pyridin-3-ylmethyl)-3-(4-(pyridin-4-yl)thiazol-2-yl)urea] | –
37 | – | – | 9.95 | COc1cc(CNC(=O)Nc2nc(-c3ccncc3)cs2)cc(OC)c1 [Compound 1bb, 1-(3,5-Dimethoxybenzyl)-3-(4-(pyridin-4-yl)thiazol-2-yl)urea] | –
38 | – | 0.009 ± 0.007 µM | – | COc1cccc([C@@H](C)NC(=O)Nc2nc(-c3ccncc3)cs2)c1 [Compound 1bh, (R)-1-(1-(3-Methoxyphenyl)ethyl)-3-(4-(pyridin-4-yl)thiazol-2-yl)urea] | –
39 | > 50 µM | – | – | C[C@H](NC(=O)Nc1nc(-c2ccncc2)cs1)c1cccc(Cl)c1 [Compound 1ce, (S)-1-(1-(3-chlorophenyl)ethyl)-3-(4-(pyridin-4-yl)thiazol-2-yl)urea] | –
40 | – | – | 40.9 | O=C(NCc1nc2ccccc2[nH]1)Nc1nc(-c2ccncc2)cs1 [Compound 1cs, 1-((1H-Benzo[d]imidazol-2-yl)methyl)-3-(4-(pyridin-4-yl)thiazol-2-yl)urea] | –
41 | – | – | 14.5 | O=C(Nc1nc(-c2ccncc2)cs1)Nc1ccc(F)cc1F [Compound 6b, 1-(2,4-Difluorophenyl)-3-(4-(pyridin-4-yl)thiazol-2-yl)urea] | –
42 | – | – | 24.3 | O=C(Nc1nc(-c2ccncc2)cs1)N1CCN(Cc2ccccc2)C[C@@H]1Cc1ccccc1 [Compound 12b, (S)-2,4-Dibenzyl-N-(4-(pyridin-4-yl)thiazol-2-yl)piperazine-1-carboxamide] | –
43 | – | – | 35 | O=C(Nc1nc(-c2ccncc2)cs1)N1CCN(C(=O)c2ccco2)CC1 [Compound 12c, 4-(Furan-2-carbonyl)-N-(4-(pyridin-4-yl)thiazol-2-yl)piperazine-1-carboxamide] | –
44 | – | – | -0.21 | O=C(Nc1nc(-c2ccncc2)cs1)N1CCN(CC2CCCO2)CC1 (stereo not shown) [Compound 12f, N-(4-(Pyridin-4-yl)thiazol-2-yl)-4-((tetrahydrofuran-2-yl)methyl)piperazine-1-carboxamide] | –
